Where two headings read alike, the source gives them in different places.
Assay: Single oral dose human plasma pharmacokinetics of D, DA and DOH after Cogni.Q
Format: in vivo
Conditions: human, plasma
Description: Ten healthy male and 10 female subjects were recruited by public announcement in Amarillo, TX, from January 2013 to April 2013 (see Fig. 1 CONSORT diagram). The sample size for each gender was chosen without power calculation due to the lack of prior knowledge of PK parameter variance in humans. After receiving informed consent verbally and in writing, the health status of each candidate was confirmed by health questionnaire, plasma biochemistry (hepatic and renal functions), complete blood cell count (CBC), and a physical examination by a participating academic physician. Subjects with diabetes, or pregnant, perinatal and breastfeeding women were excluded. For the 48 hours preceding study visit until the final blood draw, all subjects were instructed to avoid taking any prescription or nonprescription drugs, vitamins, and herbal/dietary supplements. Each subject was compensated for participating in the study per TTUHSC IRB approved rate.
Eligible subjects arrived at our clinical facility at 0700 (7:00 am) on the test day after a fast beginning at 2200 (10:00 pm) the previous night. After a brief review of vital signs, the nurse placed an intravenous (IV) line with saline drip in one arm of each subject. A baseline pre-dose (hour 0) blood sample was drawn through the IV line; after that subjects swallowed four Cogni.Q vegicaps with 240 mL of water at hour 0 under direct supervision. Subjects stayed at the clinical facility in their room for the next 12 hours, returning at 24 and 48 hours. Blood was drawn at baseline (hour 0) and at 0.5, 1, 2, 3, 4, 6, 8, 12, 24 and 48 hours after dosing into Vacutainer Blood Collection Tube (Becton-Dickinson, Franklin Lakes, NJ. Product Number: 367874, Sodium heparin was used as anti-coagulant). Water was allowed as desired except for within the first hour after Cogni.Q consumption. All subjects received standardized meals at post-dose hours 4.5 and 9.5 but no food was allowed for at least the first 4 hours post-dose.
Plasma was prepared by centrifuging the heparinized blood at 1000 g for 15 minutes at room temperature. Urine samples (40mL) were collected within time spans of 0–4, 4–8, 8–12 and 12–24 hours (total volume of urine was recorded). All plasma and urine samples were put on dry ice immediately and then stored at -80°C freezer until analysis.
Plasma samples were extracted with a validated solid supported liquid extraction (SLE) method facilitated with a positive pressure manifold (Biotage, Charlotte, NC). Briefly, 100 μL of plasma sample was spiked with 5 μL of 10 ng/μL prednisolone (IS), diluted with 200 μL of LC-MS grade water, mixed and loaded onto ISOLUTE SLE+ 400 μL Array Well cartridges (Biotage, Charlotte, NC). A pulse of minimum positive pressure was applied to facilitate the samples absorption into the cartridges. After the samples were allowed to absorb for 5 min, the compounds were eluted with 2×500 μL tert-butyl methyl ether. The eluent was dried in a Speedvac and the resulting residue was reconstituted in 50 μL of methanol for UHPLC-MS/MS analysis.
Eight-point calibration curves were constructed for D, DA and DOH, at concentrations of 0.1, 0.5, 1, 5, 10, 20, 50 and 100 μg/L for D and DA, and at concentrations of 1, 5, 10, 50, 100, 200, 500 and 1000 μg/L for DOH, respectively. The linear range was 0.1–100 μg/L (0.3–300 nmol/L), 0.1–100 μg/L (0.3–300 nmol/L) and 1–1000 μg/L (4–4000 nmol/L) for D, DA and DOH, respectively. The inter- and intra-assay CV were lower than 6.5% and the accuracy was between 90–105%. Calibration curve was run for each batch of samples analyzed. The mean calibration curve correlation coefficient (r) for D, DA and DOH was 0.999, 0.999 and 0.998, respectively (data from 7–10 calibration curves). In addition, 70% of the plasma samples were extracted and analyzed twice, the data from two replicate analyses were nearly identical and combined for final data analyses and presentation. […]

For `CC1(C)Oc2cc3oc(=O)ccc3cc2C[C@@H]1O` [DOH, decursinol], the half-life (oral, 4 Cogni.Q vegicaps, subject S9 (158 lb), read-out: Terminal t1/2, h (converted)) was 7.7 h, the Tmax (oral, 4 Cogni.Q vegicaps, subject S9 (158 lb), read-out: Tmax) was 3 h and the AUC(0-t) (oral, 4 Cogni.Q vegicaps, subject S10 (185 lb), read-out: AUC0-48h) was 17400 nmol·h/L. The Cmax (oral, 4 Cogni.Q vegicaps, subject S10 (185 lb), read-out: Cmax) was 1610 nM, the half-life (oral, 4 Cogni.Q vegicaps, subject S10 (185 lb), read-out: Terminal t1/2, h (converted)) was 8.8 h and the Tmax (oral, 4 Cogni.Q vegicaps, subject S10 (185 lb), read-out: Tmax) was 2 h. It also gave an AUC(0-t) (oral, 4 Cogni.Q vegicaps, subject S11 (178 lb), read-out: AUC0-48h) of 37300 nmol·h/L, a Cmax (oral, 4 Cogni.Q vegicaps, subject S11 (178 lb), read-out: Cmax) of 3420 nM and a half-life (oral, 4 Cogni.Q vegicaps, subject S11 (178 lb), read-out: Terminal t1/2, h (converted)) of 5 h. For the same compound, the Tmax (oral, 4 Cogni.Q vegicaps, subject S11 (178 lb), read-out: Tmax) was 2 h, the AUC(0-t) (oral, 4 Cogni.Q vegicaps, subject S12 (169 lb), read-out: AUC0-48h) was 29100 nmol·h/L and the Cmax (oral, 4 Cogni.Q vegicaps, subject S12 (169 lb), read-out: Cmax) was 2590 nM. It also gave a half-life (oral, 4 Cogni.Q vegicaps, subject S12 (169 lb), read-out: Terminal t1/2, h (converted)) of 7.9 h, a Tmax (oral, 4 Cogni.Q vegicaps, subject S12 (169 lb), read-out: Tmax) of 4 h and an AUC(0-t) (oral, 4 Cogni.Q vegicaps, subject S13 (192 lb), read-out: AUC0-48h) of 26100 nmol·h/L. It also gave a Cmax (oral, 4 Cogni.Q vegicaps, subject S13 (192 lb), read-out: Cmax) of 2420 nM, a half-life (oral, 4 Cogni.Q vegicaps, subject S13 (192 lb), read-out: Terminal t1/2, h (converted)) of 6 h and a Tmax (oral, 4 Cogni.Q vegicaps, subject S13 (192 lb), read-out: Tmax) of 2 h. The AUC(0-t) (oral, 4 Cogni.Q vegicaps, subject S14 (200 lb), read-out: AUC0-48h) was 25700 nmol·h/L, the Cmax (oral, 4 Cogni.Q vegicaps, subject S14 (200 lb), read-out: Cmax) was 3340 nM and the half-life (oral, 4 Cogni.Q vegicaps, subject S14 (200 lb), read-out: Terminal t1/2, h (converted)) was 5.3 h. The Tmax (oral, 4 Cogni.Q vegicaps, subject S14 (200 lb), read-out: Tmax) was 2 h, the AUC(0-t) (oral, 4 Cogni.Q vegicaps, subject S15 (177 lb), read-out: AUC0-48h) was 26100 nmol·h/L and the Cmax (oral, 4 Cogni.Q vegicaps, subject S15 (177 lb), read-out: Cmax) was 4020 nM. For the same compound, the half-life (oral, 4 Cogni.Q vegicaps, subject S15 (177 lb), read-out: Terminal t1/2, h (converted)) was 4.5 h, the Tmax (oral, 4 Cogni.Q vegicaps, subject S15 (177 lb), read-out: Tmax) was 1 h and the Tmax (oral, 4 Cogni.Q vegicaps, subject S16 (175 lb), read-out: Tmax) was 2 h. It also gave an AUC(0-t) (oral, 4 Cogni.Q vegicaps, subject S17 (147 lb), read-out: AUC0-48h) of 46700 nmol·h/L, a Cmax (oral, 4 Cogni.Q vegicaps, subject S17 (147 lb), read-out: Cmax) of 3740 nM and a half-life (oral, 4 Cogni.Q vegicaps, subject S17 (147 lb), read-out: Terminal t1/2, h (converted)) of 10.2 h. It also gave a Tmax (oral, 4 Cogni.Q vegicaps, subject S17 (147 lb), read-out: Tmax) of 2 h, a half-life (oral, 4 Cogni.Q vegicaps, subject S18 (180 lb), outlier, excluded from means, read-out: Terminal t1/2, h (converted)) of 16 h and an AUC(0-t) (oral, 4 Cogni.Q vegicaps, subject S18 (180 lb), read-out: AUC0-48h) of 16500 nmol·h/L. It also gave a Cmax (oral, 4 Cogni.Q vegicaps, subject S18 (180 lb), read-out: Cmax) of 1160 nM, a Tmax (oral, 4 Cogni.Q vegicaps, subject S18 (180 lb), read-out: Tmax) of 3 h and an AUC(0-t) (oral, 4 Cogni.Q vegicaps, subject S19 (130 lb), read-out: AUC0-48h) of 21400 nmol·h/L. For the same compound, the Cmax (oral, 4 Cogni.Q vegicaps, subject S19 (130 lb), read-out: Cmax) was 2270 nM, the half-life (oral, 4 Cogni.Q vegicaps, subject S19 (130 lb), read-out: Terminal t1/2, h (converted)) was 6.6 h and the Tmax (oral, 4 Cogni.Q vegicaps, subject S19 (130 lb), read-out: Tmax) was 6 h. The half-life (oral, subject S16 (175 lb), outlier, excluded from means, read-out: Terminal t1/2, h (converted)) was 15 h, the AUC(0-t) (oral, subject S16 (175 lb), read-out: AUC0-48h) was 16300 nmol·h/L and the Cmax (oral, subject S16 (175 lb), read-out: Cmax) was 1800 nM. It also gave an AUC(0-t) (oral, subject S20 (200 lb), read-out: AUC0-48h) of 17900 nmol·h/L, a Cmax (oral, subject S20 (200 lb), read-out: Cmax) of 1330 nM and a half-life (oral, subject S20 (200 lb), read-out: Terminal t1/2, h (converted)) of 9.6 h. It also gave a Tmax (oral, subject S20 (200 lb), read-out: Tmax) of 2 h, an AUC(0-t) (male, oral, 4 Cogni.Q vegicaps, Men n=10 (S1 Table), read-out: AUC0-48h, Mean) of 22500 nmol·h/L and a Cmax (male, oral, 4 Cogni.Q vegicaps, Men n=10 (S1 Table), read-out: Cmax, nM, Mean) of 2350 nM. The Tmax (male, oral, 4 Cogni.Q vegicaps, Men n=10 (S1 Table), read-out: Tmax, h, Mean) was 2.4 h, the half-life (male, oral, Men, outliers excluded (S1 Table), read-out: Terminal t1/2, h, Mean (converted)) was 6.6 h and the AUC(0-t) (male, po, Men N = 10, single oral dose Cogni.Q, read-out: AUC0–48h, h.nmol/L Mean (SD)) was 22500 nmol·h/L. For the same compound, the Cmax (male, po, Men N = 10, single oral dose Cogni.Q, read-out: Cmax, nmol/L, Mean (SD)) was 2350 nM, the Tmax (male, po, Men N = 10, single oral dose Cogni.Q, read-out: Tmax, h, Mean (SD)) was 2.4 h and the half-life (male, po, Men, outlier subjects excluded, single oral dose Cogni.Q, read-out: T1/2, h, terminal Mean (SD) (converted)) was 6.6 h.

— PMC4335020, “Single Oral Dose Pharmacokinetics of Decursin and Decursinol Angelate in Healthy Adult Men and Women” (PLoS ONE, 2015)
